Consider 4 compounds from paper PMC8233831, “On the Inhibitability of Natural Products Isolated from Tetradium ruticarpum towards Tyrosine Phosphatase 1B (PTP1B) and α-Glucosidase (3W37): An In Vitro and In Silico Study” (Molecules, 2021).

Like-named read-outs stand apart in the source and are kept apart here.

The test system of one data set is BEL7403. On the set-up: method as in PMID 23651559. Conditions: BEL7403, MTT method; cited from earlier work. (In general: Tetrazolium dyes change colour on reduction, which living cells bring about.)
The test system of a further data set is Candida albicans. On the set-up: method as in PMID 33971509. Conditions: cited from earlier work.
The subject of the next data set is BEL7402. Also noted: method as in PMID 23651559. The settings on record: BEL7402, MTT method; cited from earlier work.
Data set [1] relates to Jurkat T cells clone E6.1. On the set-up: method as in doi:10.5012/bkcs.2010.31.04.1081. The settings on record: Jurkat T cells clone E6.1, MTT method; cited from earlier work.
Data set [2] has as its system Staphylococcus epidermidis (ATCC12228). On the set-up: method as in PMID 23651559. Conditions: cited from earlier work.
The next data set relates to nitric oxide production. On the set-up: method as in PMID 26753624. Conditions: cited from earlier work.
Data set [3] deals with Staphyloccocus aureus (ATCC25923). On the set-up: method as in PMID 23651559. Conditions: cited from earlier work.
Data set [4] has as its system experimental liver cancer cells in rats. On the set-up: method as in ref 32 = [32]; 32. Bai J.W. Zhang Y. Yang M.J. Effects of schinifoline on cytoskeleton of experimental hepatoma in rats observed by whole mount cell transmission electron microscopy Beijing Zhongyiyao Daxue Xuebao 2. The settings on record: by influencing cytoskeleton; cited from earlier work.
The test system of data set [5] is A549 cells. Also noted: method as in PMID 25470278. Conditions: applied before 60Co γ-irradiation; cited from earlier work.
Data set [6] has as its target T1, Protein tyrosine phosphatase 1B (human recombinant) (Homo sapiens, UniProt P18031).
T1 construct: purchased Biomol International LP, Plymouth Meeting, Pennsylvania, PA, USA
T1 sequence (P18031 1-435): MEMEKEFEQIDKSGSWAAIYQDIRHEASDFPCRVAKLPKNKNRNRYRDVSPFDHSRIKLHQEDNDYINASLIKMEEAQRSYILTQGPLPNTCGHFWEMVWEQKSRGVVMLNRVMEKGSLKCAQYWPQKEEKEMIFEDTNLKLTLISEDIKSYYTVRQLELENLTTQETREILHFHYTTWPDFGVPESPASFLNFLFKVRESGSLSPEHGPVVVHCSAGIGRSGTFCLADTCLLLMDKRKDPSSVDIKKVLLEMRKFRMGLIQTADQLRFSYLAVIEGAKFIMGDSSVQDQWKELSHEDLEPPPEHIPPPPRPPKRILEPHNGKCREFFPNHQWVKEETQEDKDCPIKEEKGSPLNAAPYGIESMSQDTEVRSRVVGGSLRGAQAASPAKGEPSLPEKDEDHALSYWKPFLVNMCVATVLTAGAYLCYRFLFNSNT
Kind of data set: Protein tyrosine phosphatase 1B inhibition assay (p-NPP substrate). Conditions: means ± SD of three replicates; read-out: PTP1B IC50. The data set is classed as biochemical. The protocol:
Protein tyrosine phosphatase 1B (human recombinant), i.e., PTP1B, was purchased from Biomol International LP, Plymouth Meeting, Pennsylvania, PA, USA, and the inhibitory activities of the tested samples were evaluated using the method as described. In a typical procedure, 0.05–0.1 μg of PTP1B (BIOMOL International L.P., Plymouth Meeting, Pennsylvania, PA, USA) and 4 mM p-NPP in a buffer containing 1 mM dithiothreitol, 0.1 M NaCl, 1 mM EDTA, and 50 mM citrate (pH 6.0), with or without test compounds, were added, with 100 μL final volume to each of the 96 wells. After the reaction mixture was incubated at 37 °C for 30 min, 10 M NaOH was added to quench the reaction. PTP1B enzyme activity was determined by the amount of produced p-nitrophenol at 405 nm. The nonenzymatic hydrolysis of the substrate was corrected by measuring the control, which contained no PTP1B enzyme.

The subject of data set [7] is Bacillus subtilis (ATCC6633). Also noted: method as in PMID 23651559. Conditions: cited from earlier work.
A further data set concerns Hela. Also noted: method as in PMID 23651559. Conditions: MTT method; cited from earlier work.
A further data set deals with α-glucosidase. The data set is described as follows: α-Glucosidase inhibition assay (pNPG substrate). The data set is classed as biochemical. The settings on record: means ± SD of three replicates. The protocol: The inhibitory activity of α-glucosidase was determined according to the modified method with a readily available enzyme. In a typical procedure, α-glucosidase (0.1 U/mL, Wako) was dissolved in 100 mM sodium phosphate buffer (pH 6.8) and used as an enzyme solution. A total of 1 mM p-Nitrophenyl-α-D-glucopyranoside (pNPG) in the same buffer (pH 6.8) was used as a substrate solution. […] After substrate solution (95 μL) was added, the sample solution was incubated for another 10 min at 37 °C incubator. Enzymatic activity was quantified by measuring absorbance at 405 nm using an enzyme-linked immunosorbent assay (ELISA) microplate reader (D.I Biotech Ltd., Seoul, Korea).

Data set [8] deals with A549 cells. Also noted: method as in PMID 25470278. Conditions: cited from earlier work.
For data set [9], the system named is experimental hepatocarcinogenesis. On the set-up: method as in ref 33 = [33]; 33. Bai J.W. Zhang Y. Wu J. Flow cytometric analysis of the schinifoline inhibition on rat hepatoma cell induced by DEN Beijing Zhongyiyao Daxue Xuebao 1999 22 34 35. The settings on record: by inhibiting hepatoma cell's DNA synthesis; cited from earlier work.
A further data set relates to HepG2. On the set-up: method as in PMID 23651559. The settings on record: HepG2, MTT method; cited from earlier work.
In the next data set the test system is aldose reductase. On the set-up: method as in PMID 17498942. The settings on record: cited from earlier work.
A further data set relates to sorbitol accumulation. On the set-up: method as in PMID 17498942. The settings on record: at 100 μM; cited from earlier work.
For data set [10], the system named is peroxisome proliferator-activated receptors (PPARs). On the set-up: method as in PMID 30827999. Conditions: cited from earlier work.
The test system of data set [11] is obese/diabetic KK-Ay mice. Also noted: method as in PMID 24391749. The settings on record: cited from earlier work.

As usually defined, the IC50 is the concentration at which inhibition is half-maximal.

For `CCCCCCCc1cc(=O)c2ccccc2n1C` [Compound 1, 2-heptyl-1-methylquinolin-4-one], the cytotoxicity result (in the data set on BEL7403; in the data set on BEL7402; in data set [1]; with Hela; in the data set on HepG2) was “no cytotoxicity” in each case. In addition, in the data set with Candida albicans, the “effect on negative effects of Candida albicans in vivo” value is “inhibited the negative effects of Candida albicans in vivo”. In addition, the antibacterial activity result in [2], in data set [3] and in data set [7] was “no antibacterial activity” throughout. The “in vitro inhibitory effect on nitric oxide production” value in the data set on nitric oxide production is listed as “did not show in vitro inhibitory effect”. The “treatment of experimental liver cancer cells in rats” value in data set [4] is given as “can be used to treat experimental liver cancer cells in rats”. The “radio-sensitivity of A549 cells” value in the data set on A549 cells [5] was “enhanced the radio-sensitivity of A549 cells”. The IC50 in [6] was 24.3 ± 0.8 µM; against α-glucosidase it was 92.1 ± 0.8 µM. Besides, the “cytotoxicity on A549 cells IC50” value was 33.7 ± 2.4 mg/L in the data set on A549 cells [8] (6 h treatment), 21.9 ± 1.9 mg/L in the data set on A549 cells [8] (12 h treatment) and 16.8 ± 2.2 mg/L with A549 cells [8] (24 h treatment). Besides, the “treatment of experimental hepatocarcinogenesis” value in [9] is recorded as “can treat experimental hepatocarcinogenesis”.
`CC(=CCOc1ccc(C=CCO)cc1)CO` [Compound 2, 3-[4-(4-methylhydroxy-2-butenyloxy)-phenyl]-2-propenol]: in the data set with nitric oxide production, the “in vitro inhibitory effect on nitric oxide production” value is listed as “did not show in vitro inhibitory effect”. Besides, the IC50 in [6] worked out at 47.7 ± 1.1 µM; on α-glucosidase, 167.4 ± 1.4 µM.
As for `CNc1ccccc1C(=O)N1CCc2c([nH]c3ccccc23)C1=O` [rhetsinine], the aldose reductase inhibition result with aldose reductase is reported as “inhibited aldose reductase in a dose-dependent manner”. Moreover, the “inhibition of sorbitol accumulation” value in the data set with sorbitol accumulation is recorded as 79.3%.
Regarding evodiamine, the “activation of PPARs” value in data set [10] is “activate peroxisome proliferator-activated receptors”. Moreover, the “obesity and insulin resistance” value in data set [11] was “reduced obesity and insulin resistance”.
